Experimental data from patent US8309557B2, “Pyrimidin-4-ylpropanedinitrile derivatives, processes for their preparation and their use as herbicides and plant growth regulators” (Bayer Intellectual Property GmbH, priority 2009, dated 2012).

Columns and labels:
Assay type in all cases: in vivo
Matricaria inodora = assay: Herbicidal effect post-emergence, MATIN
Experimental: (§1) Seeds of mono- and dicotyledonous weed plants and crop plants are planted in wood-fiber pots in sandy loam, covered with earth and grown in a greenhouse under good growth conditions. 2 to 3 weeks after sowing, the test plants are treated in the single-leaf stage. The compounds according to the invention, formulated in the form of wettable powders (WP) or as emulsion concentrates (EC), are then sprayed onto the green plant parts as aqueous suspension or emulsion using an application rate of 600 to 800 l of water/ha (converted) with the addition of 0.2% by weight of wetting agent. After the test plants had been in the greenhouse for ca. 3 weeks under optimum growth conditions, the effect of the preparations is scored visually in comparison with untreated controls (herbicidal effect in percent (%): 100% effect=plants have died off, 0% effect=as control plants).

Veronica persica [1] = assay: Herbicidal effect post-emergence, VERPE
Experimental: as §1

Amaranthus retroflexus [2] = assay: Herbicidal effect post-emergence, AMARE
Experimental: as §1

[3] = tested on: Polygonum (Fallopia) convolvulus; assay: Herbicidal effect post-emergence, POLCO
Experimental: as §1

Abutilon theophrasti = assay: Herbicidal effect post-emergence, ABUTH
Experimental: as §1

Setaria viridis = assay: Herbicidal effect post-emergence, SETVI
Experimental: as §1

Viola tricolor [4] = assay: Herbicidal effect post-emergence, VIOTR
Experimental: as §1

Echinochloa crus-galli = assay: Herbicidal effect post-emergence, ECHCG
Experimental: as §1

Stellaria media = assay: Herbicidal effect post-emergence, STEME
Experimental: as §1

Amaranthus retroflexus [5] = assay: Herbicidal effect pre-emergence, AMARE; conditions: 320 g/hectare, visual grading after 3 weeks vs untreated controls
Source text: (§2) Seeds of mono- and dicotyledonous weed plants and crop plants are planted in wood-fiber pots in sandy loam and covered with earth. The compounds according to the invention, formulated in the form of wettable powders (WP) or as emulsion concentrates (EC), are then applied to the surface of the covering earth as aqueous suspension or emulsion at an application rate corresponding to 320 g/hectare at an application rate of 600 to 800 l of water/ha (converted) with the addition of 0.2% wetting agent.
(§3) Following treatment, the pots are placed in a greenhouse and kept under good growth conditions for the test plants. The visual grading of the damage to the test plants is carried out after a test time of 3 weeks in comparison to untreated controls (herbicidal effect in percent (%): 100% effect=plants have died off, 0% effect=as control plants).

Veronica persica [6] = assay: Herbicidal effect pre-emergence, VERPE; conditions: 320 g/hectare, visual grading after 3 weeks vs untreated controls
Source text: as §2, §3

Viola tricolor [7] = assay: Herbicidal effect pre-emergence, VIOTR; conditions: 320 g/hectare, visual grading after 3 weeks vs untreated controls
Source text: as §2, §3

[8] = 0.32 kg and less of active substance per hectare, visual score after ca. 3 weeks vs untreated controls

Compound	Effect in % in respect of stated plant, MATIN (Matricaria inodora) [%]	Effect in % in respect of stated plant, VERPE (Veronica persica [1]) [%]	Effect in % in respect of stated plant, AMARE (Amaranthus retroflexus [2]) [%]	Effect in % in respect of stated plant, POLCO [3] [%]	Effect in % in respect of stated plant, ABUTH (Abutilon theophrasti) [%]	Effect in % in respect of stated plant, SETVI (Setaria viridis) [%]	Effect in % in respect of stated plant, VIOTR (Viola tricolor [4]) [%]	Effect in % in respect of stated plant, ECHCG (Echinochloa crus-galli) [%]	Effect in % in respect of stated plant, STEME (Stellaria media) [%]	Effect in % in respect of stated plant, AMARE (Amaranthus retroflexus [5]) [%]	Effect in % in respect of stated plant, VERPE (Veronica persica [6]) [%]	Effect in % in respect of stated plant, VIOTR (Viola tricolor [7]) [%]	herbicidal effect (Matricaria inodora; [8])	herbicidal effect [3, 8]	herbicidal effect (Veronica persica [1]; [8])
N.N#CC(C#N)c1nc(-c2ccc(F)cc2)nc(N)c1Cl [Compound 300]	80	80	80												
CN.N#CC(C#N)c1nc(-c2ccc(Cl)cc2)nc(N)c1Cl [Compound 309]	85	90	95	90	90	80	85	90	80	85	100	100			
N.N#CC(C#N)c1nc(-c2ccc(Cl)cc2)nc(N)c1Br [Compound 313]	90	100	100		80		80		90						
N.N#CC(C#N)c1nc(-c2ccc(Br)cc2)nc(N)c1Cl [Compound 321]	100	90	100	100	90	80	90	90	80	90	100	100			
N#C[C-](C#N)c1nc(-c2ccc(Cl)c(Cl)c2)nc(N)c1Cl.[Na+] [Compound 340]	90	90	90	90	80										
N.N#CC(C#N)c1nc(-c2ccc(Cl)cc2Cl)nc(N)c1Cl [Compound 375]	90	90	100	100	90					100	100	80			
N.N#CC(C#N)c1nc(-c2ccc(F)cc2F)nc(N)c1Cl [Compound 383]	90	90	90	100	80										
Cc1ccc(-c2nc(N)c(Cl)c(C(C#N)C#N)n2)cc1F.N [Compound 385]	80		100	80	80										
Cc1cc(-c2nc(N)c(Cl)c(C(C#N)C#N)n2)ccc1F.N [Compound 389]		80	80	80	80										
N.N#CC(C#N)c1nc(-c2cccc(Cl)c2Cl)nc(N)c1Cl [Compound 390]		80	90	80											
Cc1ccc(-c2nc(N)c(Cl)c(C(C#N)C#N)n2)c(F)c1.N [Compound 391]				80											
N.N#CC(C#N)c1nc(-c2ccc(Br)cc2F)nc(N)c1Cl [Compound 392]	100	90	100	90	90	80	90	80	90	80	100	100			
N#CC(C#N)c1nc(-c2ccccc2)nc(N)c1Cl [Ex. No. 1, [6-Amino-5-chloro-2-phenylpyrimidin-4-yl]propanedinitrile]													at least 80%	at least 80%	at least 80%
N#CC(C#N)c1nc(-c2ccc(Cl)cc2)nc(N)c1Cl [Ex. No. 29, [6-Amino-5-chloro-2-(4-chlorophenyl)pyrimidin-4-yl]propanedinitrile]		90			80		80				100	80			
N#CC(C#N)c1nc(-c2ccc(C(F)(F)F)cc2)nc(N)c1Cl [compound 45]	80	90		80		80	80								
N#CC(C#N)c1nc(-c2ccc(Cl)c(C(F)(F)F)c2)nc(N)c1Cl [compound 87]	90	90													
N#CC(C#N)c1nc(-c2ccc(Cl)c(Cl)c2)nc(N)c1Cl [compound 104]	90	90	90	80	80	80	80	80							
N#CC(C#N)c1nc(-c2ccc(Cl)cc2Cl)nc(N)c1Cl [compound 186]	90	90	100	100	100		80		90	90	100				
N#CC(C#N)c1nc(-c2ccc(F)cc2F)nc(N)c1Cl [compound 201]	80	90	90	90											
N#CC(C#N)c1nc(-c2cc(F)ccc2N)nc(N)c1Cl [compound 203]										100	90				
Cc1ccc(-c2nc(N)c(Cl)c(C(C#N)C#N)n2)cc1F [compound 204]	80	80	90	80	90			80							
Cc1cc(-c2nc(N)c(Cl)c(C(C#N)C#N)n2)ccc1F [compound 205]											100	100			
N#CC(C#N)c1nc(-c2cccc(Cl)c2Cl)nc(N)c1Cl [compound 207]	80	90	100	100	80				80						
N#CC(C#N)c1nc(-c2cc(F)c(Cl)c(F)c2)nc(N)c1Cl [compound 210]		80	90								80	100			
N#CC(C#N)c1nc(C2CCCCC2)nc(N)c1Cl [compound 240]	80	90			80										
